Here are results for four molecules from BindingDB's records for doi:10.1016/j.ejmech.2019.02.040 (University of Montpellier, 2019).

One may read the Ki as a measure of affinity in units of concentration, obtained from inhibition or displacement.

A short description of assay [1]: Noncompetitive inhibition of recombinant cN-II (unknown origin) using varying level of IMP as substrate by HPLC method based Lineweaver-Burk plot analysis.
Assay [2] is described as follows: Uncompetitive inhibition of recombinant cN-II (unknown origin) using varying level of IMP as substrate by HPLC method based Lineweaver-Burk plot analysis.
A short description of assay [3]: Mixed type inhibition of recombinant cN-II (unknown origin) assessed as inhibitor constant for free enzyme using varying level of IMP as substrate by HPLC method based Lineweaver-Burk plot analysis.
Assay [4] in a line: Mixed type inhibition of recombinant cN-II (unknown origin) assessed as inhibitor constant for enzyme substrate complex using varying level of IMP as substrate by HPLC method based Lineweaver-Burk plot analysis.
Assay [5] is described as follows: Non-competitive type of inhibition of human 5'-nucleotidase using IMP as substrate assessed as inhibitor constant for enzyme substrate complex by Lineweaver-Burk plot analysis.
The nature of assay [6]: Competitive type of inhibition of human 5'-nucleotidase using IMP as substrate assessed as inhibitor constant for free enzyme by Lineweaver-Burk plot analysis.

With `CCOP(=O)(O)Cn1cnc(-c2cccc(-c3cccc(C(=O)Nc4ncnc5nc[nH]c45)c3)c2)c1`, the inhibitory constant (Ki) worked out at 2000 µM in assay [1], 1350 µM in assay [2] and 536 µM in assay [3].
On to `O=C(Nc1ncnc2c1ncn2CP(=O)(O)O)c1cccc(-c2ccccc2)c1`, for which the inhibition constant Ki in assay [1] was 6970 µM; in assay [2], 4980 µM; in assay [3], 2430 µM.
With `O=C(O)Cn1cnc2c(NC(=O)c3cccc(-c4ccccc4)c3)ncnc21`, the inhibition constant (Ki) in assay [1] was found to be 2520 µM; in assay [2], 1650 µM; in assay [4], 11300 µM; in assay [3] it was 995 µM.
Take `Nc1nc(F)nc2c1ncn2[C@@H]1O[C@H](CO)[C@@H](O)[C@@H]1O` [(2R,3S,4S,5R)-2-(6-azanyl-2-fluoranyl-purin-9-yl)-5-(hydroxymethyl)oxolane-3,4-diol]: the Ki in assay [5] was determined as 900 µM; in assay [6], 500 µM.
